# Experimental data: patent US4916149A, “Diuretic and saluretic 4-chloro-3-sulfamoylbenzoic acid hydrazides” (Chinoin Gyogyszer es Vegyeszeti Termekek Gyara Rt., priority 1987, dated 1990)
# Where “and” joins values, the source holds several entries; their conditions need not be identical. Equal values may be shown once. Read-outs that look alike come from different tables or passages of the source.
# Tests used:
# [1] = Glucose tolerance, serum uric acid and cholesterol; format: in vivo
# [2] = Saluretic/diuretic screening in rats (method of Lipschitz as modified by Kagawa and Kahn); format: in vivo, male LATI CFY rats; conditions: for response vs control in vivo at 5 mg/kg: Rattus norvegicus; for response vs control in vivo at 5 mg/kg / Na/K ratio of the urine discharged: single oral dose (5 mg/kg oral screen dose), 24 hours; for Na/K ratio of the urine discharged: control 3.0
# Procedure: The compounds of the present invention were compared with Dihydrochlorothiazide and Furosemide in rats by administration of a 5 mg/kg oral screen dose.
# The screening tests were carried out on male LATI CFY rats having an average body-weight of 240 g. The animals were kept on standard rat food and starved for 16 hours before the experiment but they received water ad libitum. For evaluation of the diuretic effect, the method of Lipschitz as modified by Kagawa and Kahn [Arch. Int. Pharmacodyn. 137, 241 (1962)] was used.
# Effect of a single oral dose of the compounds according to the invention on water, sodium and potassium diuresis during 24 hours as percentage of the simultaneously measured control values as well as their effect on the Na/K ratio of the urine discharged
# [3] = Antihypertensive activity in spontaneously hypertensive (SH) rats, systolic blood pressure; format: in vivo, spontaneously hypertensive (SH) male Okamoto rats
# Procedure: […] A hypotension of 21.1% was induced by the compound of Example 1 by 12 hours after administration.
# These investigations were carried but in spontaneously hypertensive (SH) male Okamoto rats. At least one week before starting the experiment, the animals had individually been maintained in cages and received water and semisynthetic rat food ad libitum. In the same time of each day, the blood pressure of each animal was measured and gastric tubing was carried out while immobilizing the animals. Animals with a blood pressure below 170 Hgmm were excluded from the experiment. Based on the daily determined blood pressure values, the animals were divided to experimental groups having a nearly equal average blood pressure and deviation.
# At the beginning of the experiment, the animals were given 0.2 ml/100 g of a solution containing the test compound, and 1 ml/100 g of Furosemide solution, respectively. Animal groups treated with physiological saline solution and solvent, respectively were also investigated in each experiment.
# Before measuring the blood pressure, the animals were put into a light-insulated sound-proof chamber then immobilized. An inflatable rubber cuff was placed on their tail root (onto the same site in each case) which was connected with a manometer.
# The material and diameter of the tail cuff was standardized. The measurement was carried out according to the Riva-Rocci principle. For determining the systolic blood pressure, the palpitation method was used. The heart rate was evaluated by a piezoelektric crystal put onto the rubber ring. The blood pressure measurement of each animal was started by 2 minutes following the immobilization, repeated in every 30 seconds and usually, the values several times repeatedly observed were accepted.
# Effect of a single oral dose of the compound of Example 1 or Furosemide, respectively on the systolic blood pressure of SH rats
# [4] = Saluretic effect in dogs (urine volume, Na and K, 0-7 and 7-24 hours); format: in vivo, perineotomized female dogs
# Procedure: The compound described in Example 1 was studied also on perineotomized female dogs. […] For adaptation, starting from the 4th week following the operation, the urinary bladder of the animals was evacuated by a catheter or treated with saline via a gastric tube. During the experiment, the dogs were kept on a standard food and they received water ad libitum. On the days of the experiements, the dogs were fasted and received only 20 ml/kg of water. Sodium in an 7.7 mmol/kg and potassium in an amount of 6.02 mmol/kg were introduced with the food.
# On the day of the experiment, the bladder of the animals was evacuated and a blood sample was taken from the leg vein, then a solution of the diuretic and solvent to the controls, respectively were administered in a dose of 10 ml/kg via a gastric tube. The animals were placed separately in metabolic cages. After 7 and 24 hours, respectively the bladder of the animals was catheterized and the urine was collected by washing the metabolic cage. After 24 hours following the catheterization, a blood sample was taken again.
# In addition to the discharged volume, the Na^+ and K^+ content of the urine as well as the glucose and cholesterol level of the serum were determined.
# [5] = read-out: K (potassium) diuresis, percentage of the simultaneously measured control values
# [6] = read-out: Na (sodium) diuresis, percentage of the simultaneously measured control values
# [7] = read-out: Water diuresis, percentage of the simultaneously measured control values
# [8] = single oral dose 5 mg/kg, before treatment 216 mmHg
# [9] = single oral dose 100 mg/kg, before treatment 201 mmHg
SMILES,"response vs control in vivo at 5 mg/kg [2, 5] [%]","response vs control in vivo at 5 mg/kg [2, 6] [%]","response vs control in vivo at 5 mg/kg [2, 7] [%]",Na/K ratio of the urine discharged [2],further results
"NS(=O)(=O)c1cc(C(=O)Nn2c(=S)[nH]c3cc(C(=O)O)ccc32)ccc1Cl.O [Example 1, 1-(4'-chloro-3'-sulfamoylbenzoyl)amino-5-carboxybenzimidazole-2-thione monohydrate]",122,152,148,4.6,"deterioration of the glucose tolerance ([1]; even in a high dose (30 mg/kg)): does not induce any deterioration; effect on the cholesterol level of the serum ([1]; in vivo): no significant effect; effect on the uric acid concentration of the serum ([1]; in vivo): no significant effect; discharged urine volume as well as ion diuresis ([2]; 5 mg/kg oral, compared with Dihydrochlorothiazide and Furosemide): particularly advantageous; Na/K index ([2]; 5 mg/kg oral, result in words): highly preferable; Hypotension 6 hours following treatment, % ([3]; single oral dose 5 mg/kg): 14.3%; Hypotension 6 hours following treatment [3, 8]: 31 mmHg; Hypotension 12 hours following treatment [3, 8]: 45 mmHg; Hypotension 12 hours following treatment, % ([3]; single oral dose 5 mg/kg, monohydrate, 5 mg/kg): 21.1% and 20.1%; Hypotension 24 hours following treatment, % ([3]; single oral dose 5 mg/kg): 13.8%; Hypotension 24 hours following treatment [3, 8]: 30 mmHg"
"NS(=O)(=O)c1cc(C(=O)Nn2c(=O)[nH]c3cc(C(=O)O)ccc32)ccc1Cl [Example 7, 1-(4'-chloro-3'-sulfamoylbenzoyl)-amino-5-carboxybenzimidazolone]",110,133,129,3.7,
"CSc1nc2cc(C(=O)O)ccc2n1NC(=O)c1ccc(Cl)c(S(N)(=O)=O)c1 [Example 9, 1-(4'-chloro-3'-sulfamoylbenzoyl)-amino-5-carboxy-2-methylthiobenzimidazole]",95,105,99,3.4,
"Cc1nc2cc(C(=O)O)ccc2n1NC(=O)c1ccc(Cl)c(S(N)(=O)=O)c1 [Example 16, 1-(4'-chloro-3'-sulfamoylbenzoyl)amino-5-carboxy-2-methylbenzimidazole]",109,117,111,3.3,
"NS(=O)(=O)c1cc(C(=O)Nn2cnc3cc(C(=O)O)ccc32)ccc1Cl [Example 19, 1-(4'-chloro-3'-sulfamoylbenzoyl)amino-5-carboxybenzimidazole]",120,121,117,3.1,
"NS(=O)(=O)c1cc(C(=O)Nn2cnc3ccccc32)ccc1Cl [Example 22, 1-(4'-chloro-3'-sulfamoylbenzoyl)-aminobenzimidazole]",103,99,107,3.7,
"Cc1nc2ccccc2n1NC(=O)c1ccc(Cl)c(S(N)(=O)=O)c1 [Example 23, 1-(4'-chloro-3'-sulfamoylbenzoyl)amino-2-methylbenzimidazole]",102,105,98,4.0,
"NS(=O)(=O)c1ccc2c(c1)[nH]c(=S)n2NC(=O)c1ccc(Cl)c(S(N)(=O)=O)c1 [Example 24, 1-(4'-chloro-3'-sulfamoylbenzoyl)amino-5-sulfamoylbenzimidazole-2-thione]",104,104,108,3.9,
"NS(=O)(=O)c1cc(C(=O)Nn2cnc3cc(C(F)(F)F)ccc32)ccc1Cl [Example 26, 1-(4'-chloro-3'-sulfamoylbenzoyl)amino-5-trifluoromethylbenzimidazole]",106,108,107,4.0,
"Cc1nc2cc(C(F)(F)F)ccc2n1NC(=O)c1ccc(Cl)c(S(N)(=O)=O)c1 [Example 27, 1-(4'-chloro-3'-sulfamoylbenzoyl)amino-2-methyl-5-trifluoromethylbenzimidazole]",85,94,95,4.3,
"NS(=O)(=O)c1cc(C(=O)Nn2c(-c3ccccc3)nc3cc(C(F)(F)F)ccc32)ccc1Cl [Example 29, 1-(4'-chloro-3'-sulfamoylbenzoyl)amino-2-phenyl-5-trifluoromethylbenzimidazole]",105,101,97,2.9,
"CSc1nc2cc(C(F)(F)F)ccc2n1NC(=O)c1ccc(Cl)c(S(N)(=O)=O)c1 [Example 30, 1-(4'-chloro-3'-sulfamoylbenzoyl)-amino-2-methylthio-5-trifluoromethylbenzimidazole]",108,106,114,3.0,
"COC(=O)c1ccc2c(c1)nc(C)n2NC(=O)c1ccc(Cl)c(S(N)(=O)=O)c1 [Example 32, 1-(4'-chloro-3'-sulfamoylbenzoyl)amino-5-methoxycarbonyl-2-methylbenzimidazole]",115,121,117,3.2,
"NS(=O)(=O)c1cc(C(=O)O)c(NCc2ccco2)cc1Cl [Furosemide, reference compound]",105,106,107,2.7,"diuretic effect in the 7 to 24 hours' period ([4]; 7 to 24 hours' period): low; Hypotension 6 hours following treatment, % ([3]; single oral dose 100 mg/kg): 25.3%; Hypotension 6 hours following treatment [3, 9]: 51 mmHg; Hypotension 12 hours following treatment, % ([3]; single oral dose 100 mg/kg): 19.4%; Hypotension 12 hours following treatment [3, 9]: 39 mmHg; Hypotension 24 hours following treatment, % ([3]; single oral dose 100 mg/kg): 1.5%; Hypotension 24 hours following treatment [3, 9]: 3 mmHg"
"NS(=O)(=O)c1cc2c(cc1Cl)NCNS2(=O)=O [Hypothiazide, reference compound]",114,129,124,3.5,diuretic effect in 7 hours' period ([4]; 7 hours' period after administration): low
